Results reported in ChEMBL document CHEMBL4507317, “Data for DCP probe BAY-899” (2021).

Tests used:
[1] = molecular target: Muscarinic acetylcholine receptor M5 (Homo sapiens) (UniProt P08912); conditions: Compound concentration 10.0 uM
[2] = molecular target: Serine/threonine-protein kinase BRSK1 (Homo sapiens) (UniProt Q8TDC3); conditions: Compound concentration 1000.0 nM
[3] = molecular target: Cyclin-dependent kinase 7 (Homo sapiens) (UniProt P50613); conditions: Compound concentration 1000.0 nM
[4] = molecular target: Mitogen-activated protein kinase 8 (Homo sapiens) (UniProt P45983); conditions: Compound concentration 1000.0 nM
[5] = molecular target: Hepatocyte growth factor receptor (Homo sapiens) (UniProt P08581); conditions: Compound concentration 1000.0 nM
[6] = molecular target: Ephrin type-A receptor 8 (Homo sapiens) (UniProt P29322); conditions: Compound concentration 1000.0 nM
[7] = system: Epidermal growth factor receptor (Homo sapiens), P00533 [T790M]; conditions: Compound concentration 1000.0 nM
[8] = molecular target: Tyrosine-protein kinase SYK (Homo sapiens) (UniProt P43405); conditions: Compound concentration 1000.0 nM
[9] = molecular target: Serine/threonine-protein kinase 25 (Homo sapiens) (UniProt O00506); conditions: Compound concentration 1000.0 nM
[10] = molecular target: Dual specificity mitogen-activated protein kinase kinase 1 (Homo sapiens) (UniProt Q02750); conditions: Compound concentration 1000.0 nM
[11] = molecular target: Serine/threonine-protein kinase STK11 (Homo sapiens) (UniProt Q15831); conditions: Compound concentration 1000.0 nM
[12] = molecular target: NT-3 growth factor receptor (Homo sapiens) (UniProt Q16288); conditions: Compound concentration 1000.0 nM
[13] = system: Proto-oncogene tyrosine-protein kinase receptor Ret (Homo sapiens), P07949 [M918T]; conditions: Compound concentration 1000.0 nM
[14] = molecular target: Cyclin-G-associated kinase (Homo sapiens) (UniProt O14976); conditions: Compound concentration 1000.0 nM
[15] = molecular target: T1, Muscarinic acetylcholine receptor M1 (Homo sapiens) (UniProt P11229); conditions: Compound concentration 10.0 uM
T1 sequence (whole entry): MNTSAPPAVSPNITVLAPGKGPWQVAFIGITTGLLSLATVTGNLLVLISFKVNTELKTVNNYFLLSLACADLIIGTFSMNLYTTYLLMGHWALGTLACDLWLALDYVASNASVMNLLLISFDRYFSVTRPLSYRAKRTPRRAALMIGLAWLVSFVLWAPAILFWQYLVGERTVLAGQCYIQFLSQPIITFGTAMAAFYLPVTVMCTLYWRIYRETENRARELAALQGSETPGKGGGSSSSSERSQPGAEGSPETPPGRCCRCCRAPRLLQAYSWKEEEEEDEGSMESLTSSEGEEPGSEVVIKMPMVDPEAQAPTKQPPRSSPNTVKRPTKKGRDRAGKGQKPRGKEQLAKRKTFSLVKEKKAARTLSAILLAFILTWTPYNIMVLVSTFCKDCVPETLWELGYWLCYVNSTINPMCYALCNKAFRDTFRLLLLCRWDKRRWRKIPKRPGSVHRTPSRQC

[16] = molecular target: Serine/threonine-protein kinase ULK1 (Homo sapiens) (UniProt O75385); conditions: Compound concentration 1000.0 nM
[17] = molecular target: Casein kinase I isoform gamma-3 (Homo sapiens) (UniProt Q9Y6M4); conditions: Compound concentration 1000.0 nM
[18] = molecular target: SRSF protein kinase 3 (Homo sapiens) (UniProt Q9UPE1); conditions: Compound concentration 1000.0 nM
[19] = molecular target: Wee1-like protein kinase 2 (Homo sapiens) (UniProt P0C1S8); conditions: Compound concentration 1000.0 nM
[20] = molecular target: Tyrosine-protein kinase Lyn (Homo sapiens) (UniProt P07948); conditions: Compound concentration 1000.0 nM
[21] = molecular target: Myosin light chain kinase family member 4 (Homo sapiens) (UniProt Q86YV6); conditions: Compound concentration 1000.0 nM
[22] = molecular target: D(3) dopamine receptor (Homo sapiens) (UniProt P35462); conditions: Compound concentration 10.0 uM
[23] = molecular target: Microtubule-associated serine/threonine-protein kinase 1 (Homo sapiens) (UniProt Q9Y2H9); conditions: Compound concentration 1000.0 nM
[24] = system: Mast/stem cell growth factor receptor Kit (Homo sapiens), P10721 [L576P]; conditions: Compound concentration 1000.0 nM
[25] = molecular target: Serine/threonine-protein kinase RIO3 (Homo sapiens) (UniProt O14730); conditions: Compound concentration 1000.0 nM
[26] = molecular target: T2, Alpha-1A adrenergic receptor (Homo sapiens) (UniProt P35348); conditions: Compound concentration 10.0 uM
T2 sequence (whole entry): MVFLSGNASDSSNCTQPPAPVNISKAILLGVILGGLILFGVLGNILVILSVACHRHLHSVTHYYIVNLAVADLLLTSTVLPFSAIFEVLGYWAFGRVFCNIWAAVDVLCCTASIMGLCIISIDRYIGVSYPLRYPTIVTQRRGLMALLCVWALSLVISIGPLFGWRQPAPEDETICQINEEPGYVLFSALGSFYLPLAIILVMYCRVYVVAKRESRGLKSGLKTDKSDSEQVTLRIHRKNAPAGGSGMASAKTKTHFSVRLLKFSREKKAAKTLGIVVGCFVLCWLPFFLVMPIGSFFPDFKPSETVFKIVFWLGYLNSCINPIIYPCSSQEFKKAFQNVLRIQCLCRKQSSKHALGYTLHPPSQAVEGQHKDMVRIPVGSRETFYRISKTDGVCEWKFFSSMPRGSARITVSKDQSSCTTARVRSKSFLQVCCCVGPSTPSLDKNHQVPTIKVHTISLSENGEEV

[27] = molecular target: Rho-associated protein kinase 2 (Homo sapiens) (UniProt O75116); conditions: Compound concentration 1000.0 nM
[28] = molecular target: Serine/threonine-protein kinase 16 (Homo sapiens) (UniProt O75716); conditions: Compound concentration 1000.0 nM
[29] = molecular target: Serine/threonine-protein kinase TAO2 (Homo sapiens) (UniProt Q9UL54); conditions: Compound concentration 1000.0 nM
[30] = molecular target: Calcium/calmodulin-dependent protein kinase kinase 2 (Homo sapiens) (UniProt Q96RR4); conditions: Compound concentration 1000.0 nM
[31] = molecular target: Muscarinic acetylcholine receptor M2 (Homo sapiens) (UniProt P08172); conditions: Compound concentration 10.0 uM
[32] = system: Phosphatidylinositol 4,5-bisphosphate 3-kinase catalytic subunit alpha isoform (Homo sapiens), P42336 [C420R]; conditions: Compound concentration 1000.0 nM
[33] = molecular target: Dual specificity tyrosine-phosphorylation-regulated kinase 1B (Homo sapiens) (UniProt Q9Y463); conditions: Compound concentration 1000.0 nM

Sequence of Dual specificity mitogen-activated protein kinase kinase 1 (Homo sapiens) (Q02750 whole entry): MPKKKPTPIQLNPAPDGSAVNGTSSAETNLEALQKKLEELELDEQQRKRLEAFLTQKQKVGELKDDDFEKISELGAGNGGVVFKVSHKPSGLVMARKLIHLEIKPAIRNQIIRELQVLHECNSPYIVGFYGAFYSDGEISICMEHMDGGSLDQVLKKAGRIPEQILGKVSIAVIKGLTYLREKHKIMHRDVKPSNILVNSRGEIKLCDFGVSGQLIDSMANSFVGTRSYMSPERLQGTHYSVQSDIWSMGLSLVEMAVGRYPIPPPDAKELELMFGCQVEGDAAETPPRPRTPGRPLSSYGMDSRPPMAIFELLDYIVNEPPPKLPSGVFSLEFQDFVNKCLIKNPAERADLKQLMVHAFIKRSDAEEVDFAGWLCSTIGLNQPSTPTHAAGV
Sequence of Serine/threonine-protein kinase STK11 (Homo sapiens) (Q15831 whole entry): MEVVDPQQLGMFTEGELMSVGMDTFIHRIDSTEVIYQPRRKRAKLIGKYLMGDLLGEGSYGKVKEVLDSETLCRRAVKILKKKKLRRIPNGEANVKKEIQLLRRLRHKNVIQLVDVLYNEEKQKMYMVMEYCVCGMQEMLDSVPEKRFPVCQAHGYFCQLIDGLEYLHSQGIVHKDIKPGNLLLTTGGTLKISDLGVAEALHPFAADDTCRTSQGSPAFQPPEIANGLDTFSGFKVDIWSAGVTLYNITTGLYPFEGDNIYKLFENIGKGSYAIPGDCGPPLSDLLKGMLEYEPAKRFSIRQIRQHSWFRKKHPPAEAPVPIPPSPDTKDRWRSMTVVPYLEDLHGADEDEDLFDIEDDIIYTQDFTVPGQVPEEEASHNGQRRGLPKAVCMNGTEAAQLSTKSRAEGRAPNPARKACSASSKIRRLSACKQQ
Sequence of Muscarinic acetylcholine receptor M5 (Homo sapiens) (P08912 whole entry): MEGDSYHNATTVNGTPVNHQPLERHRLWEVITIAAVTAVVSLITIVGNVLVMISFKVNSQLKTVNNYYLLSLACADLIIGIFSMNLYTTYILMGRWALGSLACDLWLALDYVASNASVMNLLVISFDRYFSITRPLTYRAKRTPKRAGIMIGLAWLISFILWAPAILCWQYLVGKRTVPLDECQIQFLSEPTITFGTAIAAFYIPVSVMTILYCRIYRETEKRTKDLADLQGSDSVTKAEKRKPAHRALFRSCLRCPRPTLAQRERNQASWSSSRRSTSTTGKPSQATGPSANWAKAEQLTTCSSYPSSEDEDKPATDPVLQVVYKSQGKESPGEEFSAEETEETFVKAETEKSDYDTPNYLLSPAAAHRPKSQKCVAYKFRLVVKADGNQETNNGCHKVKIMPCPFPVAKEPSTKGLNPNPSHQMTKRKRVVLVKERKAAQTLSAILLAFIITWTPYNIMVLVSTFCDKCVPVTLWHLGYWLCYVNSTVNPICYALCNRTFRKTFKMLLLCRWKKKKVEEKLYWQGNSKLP
Sequence of Cyclin-G-associated kinase (Homo sapiens) (O14976 whole entry): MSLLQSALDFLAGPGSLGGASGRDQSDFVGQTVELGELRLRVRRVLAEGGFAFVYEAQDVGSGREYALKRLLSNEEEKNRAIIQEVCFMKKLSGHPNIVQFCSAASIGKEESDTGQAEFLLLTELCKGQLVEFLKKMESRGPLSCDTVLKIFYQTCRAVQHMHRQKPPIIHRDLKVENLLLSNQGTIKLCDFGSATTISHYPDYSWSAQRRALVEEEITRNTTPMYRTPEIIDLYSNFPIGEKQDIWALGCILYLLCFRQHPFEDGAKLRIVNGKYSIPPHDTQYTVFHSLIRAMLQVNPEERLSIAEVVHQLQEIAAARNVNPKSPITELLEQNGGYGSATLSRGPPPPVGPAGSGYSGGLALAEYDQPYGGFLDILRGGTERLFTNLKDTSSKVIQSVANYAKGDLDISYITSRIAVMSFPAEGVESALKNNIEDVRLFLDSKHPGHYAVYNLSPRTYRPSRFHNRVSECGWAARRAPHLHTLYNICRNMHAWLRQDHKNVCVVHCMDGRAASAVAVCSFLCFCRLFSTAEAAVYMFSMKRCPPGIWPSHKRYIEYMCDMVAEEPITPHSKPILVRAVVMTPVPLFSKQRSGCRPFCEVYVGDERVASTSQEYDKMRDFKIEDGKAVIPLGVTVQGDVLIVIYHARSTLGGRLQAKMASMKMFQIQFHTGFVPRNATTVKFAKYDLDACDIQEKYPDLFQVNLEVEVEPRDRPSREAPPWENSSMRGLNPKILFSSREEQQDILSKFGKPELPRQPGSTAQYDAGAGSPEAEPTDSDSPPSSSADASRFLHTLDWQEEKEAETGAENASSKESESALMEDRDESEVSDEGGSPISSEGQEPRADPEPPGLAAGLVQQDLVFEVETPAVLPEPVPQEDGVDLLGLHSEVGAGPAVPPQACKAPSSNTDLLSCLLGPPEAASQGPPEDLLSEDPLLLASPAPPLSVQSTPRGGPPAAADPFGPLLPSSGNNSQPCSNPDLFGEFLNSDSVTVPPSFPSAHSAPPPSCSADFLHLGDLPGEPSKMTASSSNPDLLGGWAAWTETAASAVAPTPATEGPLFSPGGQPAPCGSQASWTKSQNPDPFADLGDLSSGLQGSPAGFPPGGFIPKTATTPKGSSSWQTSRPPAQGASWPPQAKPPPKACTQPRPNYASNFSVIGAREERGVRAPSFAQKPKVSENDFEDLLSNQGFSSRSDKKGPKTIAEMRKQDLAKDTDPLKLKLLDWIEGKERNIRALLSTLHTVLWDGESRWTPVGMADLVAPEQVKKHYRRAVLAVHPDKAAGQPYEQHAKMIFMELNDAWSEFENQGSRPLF
Sequence of Proto-oncogene tyrosine-protein kinase receptor Ret (Homo sapiens), P07949 [M918T] (P07949 whole entry M918T): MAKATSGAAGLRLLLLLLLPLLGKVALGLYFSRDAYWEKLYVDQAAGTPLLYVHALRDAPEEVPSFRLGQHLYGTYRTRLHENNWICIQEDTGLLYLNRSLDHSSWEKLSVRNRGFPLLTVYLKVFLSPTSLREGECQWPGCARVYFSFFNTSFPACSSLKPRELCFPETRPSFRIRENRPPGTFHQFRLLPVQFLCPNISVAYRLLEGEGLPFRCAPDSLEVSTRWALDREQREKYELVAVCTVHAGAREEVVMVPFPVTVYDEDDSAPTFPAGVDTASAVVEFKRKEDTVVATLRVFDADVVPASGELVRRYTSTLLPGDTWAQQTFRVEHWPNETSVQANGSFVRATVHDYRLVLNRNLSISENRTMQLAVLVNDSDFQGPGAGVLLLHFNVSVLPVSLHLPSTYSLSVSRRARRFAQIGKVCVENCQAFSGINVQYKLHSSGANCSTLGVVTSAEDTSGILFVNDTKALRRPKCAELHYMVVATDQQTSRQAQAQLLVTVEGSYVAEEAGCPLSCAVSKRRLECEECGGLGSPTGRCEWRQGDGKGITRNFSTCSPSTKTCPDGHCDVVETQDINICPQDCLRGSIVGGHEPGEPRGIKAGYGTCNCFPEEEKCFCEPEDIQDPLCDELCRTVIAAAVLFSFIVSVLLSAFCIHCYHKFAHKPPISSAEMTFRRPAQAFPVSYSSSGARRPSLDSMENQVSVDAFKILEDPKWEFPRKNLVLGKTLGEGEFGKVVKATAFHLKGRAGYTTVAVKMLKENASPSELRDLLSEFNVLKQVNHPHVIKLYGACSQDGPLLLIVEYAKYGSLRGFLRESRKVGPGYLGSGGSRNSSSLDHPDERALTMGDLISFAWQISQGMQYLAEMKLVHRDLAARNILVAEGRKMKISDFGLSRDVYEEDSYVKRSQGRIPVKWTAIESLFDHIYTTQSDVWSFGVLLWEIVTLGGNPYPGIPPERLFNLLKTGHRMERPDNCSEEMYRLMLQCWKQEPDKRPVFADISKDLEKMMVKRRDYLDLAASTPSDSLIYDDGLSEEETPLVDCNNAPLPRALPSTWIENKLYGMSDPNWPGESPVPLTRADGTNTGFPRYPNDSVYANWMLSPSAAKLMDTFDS
Sequence of Serine/threonine-protein kinase BRSK1 (Homo sapiens) (Q8TDC3 whole entry): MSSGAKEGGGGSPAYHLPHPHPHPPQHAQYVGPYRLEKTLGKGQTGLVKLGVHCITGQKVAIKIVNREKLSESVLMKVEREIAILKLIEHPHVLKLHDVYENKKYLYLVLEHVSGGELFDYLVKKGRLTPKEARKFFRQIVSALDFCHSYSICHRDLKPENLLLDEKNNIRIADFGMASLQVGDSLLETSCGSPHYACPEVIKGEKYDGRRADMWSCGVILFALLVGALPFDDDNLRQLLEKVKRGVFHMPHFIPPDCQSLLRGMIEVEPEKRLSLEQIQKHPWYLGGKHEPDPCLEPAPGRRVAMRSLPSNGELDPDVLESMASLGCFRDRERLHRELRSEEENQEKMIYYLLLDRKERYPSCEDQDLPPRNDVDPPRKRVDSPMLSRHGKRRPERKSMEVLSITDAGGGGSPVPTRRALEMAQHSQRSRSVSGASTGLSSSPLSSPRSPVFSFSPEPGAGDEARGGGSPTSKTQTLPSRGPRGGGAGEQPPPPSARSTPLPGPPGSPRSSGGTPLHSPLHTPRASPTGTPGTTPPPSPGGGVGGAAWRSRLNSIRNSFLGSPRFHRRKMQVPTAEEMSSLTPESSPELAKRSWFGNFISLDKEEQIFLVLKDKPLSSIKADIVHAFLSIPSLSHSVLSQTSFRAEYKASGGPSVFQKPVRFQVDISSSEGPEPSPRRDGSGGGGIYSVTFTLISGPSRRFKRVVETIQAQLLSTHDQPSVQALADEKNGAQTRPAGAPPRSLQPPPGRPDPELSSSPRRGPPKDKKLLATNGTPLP
Sequence of Serine/threonine-protein kinase 25 (Homo sapiens) (O00506 whole entry, looked up): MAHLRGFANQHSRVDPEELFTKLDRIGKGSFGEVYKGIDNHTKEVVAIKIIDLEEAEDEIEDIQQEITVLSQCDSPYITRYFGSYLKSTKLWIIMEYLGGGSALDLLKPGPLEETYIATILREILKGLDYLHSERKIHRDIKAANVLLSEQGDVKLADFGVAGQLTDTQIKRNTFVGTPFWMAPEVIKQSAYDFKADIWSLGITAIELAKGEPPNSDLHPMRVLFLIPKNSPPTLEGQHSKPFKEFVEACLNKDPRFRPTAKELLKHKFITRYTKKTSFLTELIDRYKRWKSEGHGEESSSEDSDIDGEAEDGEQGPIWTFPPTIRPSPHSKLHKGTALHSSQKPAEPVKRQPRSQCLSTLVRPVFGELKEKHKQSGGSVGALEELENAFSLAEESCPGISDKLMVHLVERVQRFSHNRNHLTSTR

O=C(Nc1ccc(Oc2ccc(F)cc2)cc1)N1CCc2ncccc2[C@H]1c1ccc(F)cc1 [BAY-897]
inactive: inhibition [1] -1.7% | residual activity [2] 100% | residual activity [3] 77% | residual activity [4] 91% | residual activity [5] 100% | residual activity [6] 92% | residual activity [7] 87% | residual activity [8] 91% | residual activity [9] 100% | residual activity [10] 98% | residual activity [11] 61% | residual activity [12] 68% | residual activity [13] 100% | residual activity [14] 89% | inhibition [15] -2.98% | residual activity [16] 89% | residual activity [17] 80% | residual activity [18] 100% | residual activity [19] 100% | residual activity [20] 95% | residual activity [21] 97% | inhibition [22] -2.66% | residual activity [23] 79% | residual activity [24] 100% | residual activity [25] 96% | inhibition [26] 16.2% | residual activity [27] 93% | residual activity [28] 100% | residual activity [29] 100% | residual activity [30] 100% | inhibition [31] -1.78% | residual activity [32] 100% | residual activity [33] 88%

O=C(Nc1cnc(Oc2ccc(F)cc2)nc1)N1CCc2ncccc2[C@@H]1c1ccc(F)cc1 [BAY-899]
inactive: inhibition [1] 12% | residual activity [2] 87% | residual activity [3] 100% | residual activity [4] 83% | residual activity [5] 100% | residual activity [6] 88% | residual activity [7] 91% | residual activity [8] 84% | residual activity [9] 82% | residual activity [10] 93% | residual activity [11] 75% | residual activity [12] 75% | residual activity [13] 95% | residual activity [14] 94% | inhibition [15] 7.56% | residual activity [16] 88% | residual activity [17] 87% | residual activity [18] 100% | residual activity [19] 95% | residual activity [20] 82% | residual activity [21] 88% | inhibition [22] -4.36% | residual activity [23] 96% | residual activity [24] 100% | residual activity [25] 89% | inhibition [26] -3.5% | residual activity [27] 100% | residual activity [28] 100% | residual activity [29] 87% | residual activity [30] 93% | inhibition [31] -5.1% | residual activity [32] 100% | residual activity [33] 78%
